Source: patent US10898471B2, “Methods of inhibiting leukotriene A4 hydrolase” (Celltaxis, LLC, priority 2013, dated 2021)

Columns and labels:
[1] = human pharmacokinetics: plasma concentration over time after oral dose; assay type: in vivo
Procedure: The two sets of dashed, horizontal lines indicate the plasma concentration that is three-times (3×) the IC50 and the plasma concentration that is one-time (1×) the IC50 of 4-{[(1S,4S)-5-({4-[4-oxazol-2-yl-phenoxy]phenyl}methyl)-2,5-diazabicyclo[2.2.1]heptan-2-yl]methyl}benzoic acid in human blood.
(§1) Thus, oral human doses as low as 10 mg can provide therapeutic benefit in the current formulation and, with improved formulation, doses as low as 5 mg can achieve therapeutic levels of the compound in blood.

[2] = biological target: T1, LTA4-h (Homo sapiens, UniProt P09960); experiment: human whole blood ex vivo assay: A23187-stimulated LTB4 production measured by ELISA; assay type: cell-based; conditions: IC50 in human whole blood
T1 construct: in human whole blood has been determined using an ex vivo assay; from tissue; host or cells: human whole blood (male and female donors)
T1 sequence (P09960 1-611): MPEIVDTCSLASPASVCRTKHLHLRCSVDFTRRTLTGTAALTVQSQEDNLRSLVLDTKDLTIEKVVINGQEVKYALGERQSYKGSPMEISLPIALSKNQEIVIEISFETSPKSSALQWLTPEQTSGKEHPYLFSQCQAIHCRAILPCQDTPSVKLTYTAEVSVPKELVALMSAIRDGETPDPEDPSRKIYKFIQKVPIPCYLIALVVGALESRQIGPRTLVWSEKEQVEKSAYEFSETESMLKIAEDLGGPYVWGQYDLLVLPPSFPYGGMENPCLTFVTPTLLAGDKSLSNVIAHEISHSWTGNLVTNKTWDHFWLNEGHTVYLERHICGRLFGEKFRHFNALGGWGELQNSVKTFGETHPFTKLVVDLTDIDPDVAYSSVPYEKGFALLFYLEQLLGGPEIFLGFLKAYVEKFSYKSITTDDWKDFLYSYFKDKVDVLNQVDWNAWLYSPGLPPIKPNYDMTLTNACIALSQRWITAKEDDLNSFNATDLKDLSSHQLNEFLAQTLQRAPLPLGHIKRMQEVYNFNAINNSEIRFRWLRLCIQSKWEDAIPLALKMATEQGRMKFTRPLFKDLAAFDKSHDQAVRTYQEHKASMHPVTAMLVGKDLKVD
Description: The IC50 of 4-{[(1S,4S)-5-({4-[4-oxazol-2-yl-phenoxy]phenyl}methyl)-2,5-diazabicyclo[2.2.1]heptan-2-yl]methyl}benzoic acid in human whole blood has been determined using an ex vivo assay. The human whole blood assay has been described in Penning et al (2000), Structure and Activity Relationship Studies on 1-[2-(4-Phenylphenoxy)ethyl]pyrrolidone (SC-22716), a Potent Inhibitor of Leukotriene A4 (LTA4) hydrolase, J. Med. Chem. 43: 721-735, the contents of which are expressly incorporated by reference herein. In this assay, LTB4 production is stimulated by addition of calcium ionophone (A23187) in the absence or presence of varied concentrations of 4-{[(1S,4S)-5-({4-[4-oxazol-2-yl-phenoxy]phenyl}methyl)-2,5-diazabicyclo[2.2.1]heptan-2-yl]methyl}benzoic acid. The ability of 4-{[(1S,4S)-5-({4-[4-oxazol-2-yl-phenoxy]phenyl}methyl)-2,5-diazabicyclo[2.2.1]heptan-2-yl]methyl}benzoic acid to reduce is LTB4 production is determined by ELISA. This ELISA assay was performed using the Leukotriene B4 EIA Kit available from Cayman Chemical (Item No. 520111) and the assay was performed according to the manufacturer's instructions.
as §1

Q: Which results are given for `O=C(O)c1ccc(CN2C[C@@H]3C[C@H]2CN3Cc2ccc(Oc3ccc(-c4ncco4)cc3)cc2)cc1` [4-{[(1S,4S)-5-({4-[4-oxazol-2-yl-phenoxy]phenyl}methyl)-2,5-diazabicyclo[2.2.1]heptan-2-yl]methyl}benzoic acid]?
A: peak plasma concentration relative to the IC50 ([1]; 5 mg oral dose): nearly achieves the IC50; time for which the blood plasma level exceeds the IC50 ([1]; 15 mg oral dose): over 12 hours; time for which the blood plasma level exceeds 3-times the IC50 ([1]; 50 mg oral dose): over 24 hours; IC50 ([2]; female blood): 68 nM; IC50 ([2]; human whole blood, LTB4 production stimulated by calcium ionophore A23187): ~62.3 nM; IC50 ([2]; male blood): 60 nM
